The structures appear in SMILES notation.

The subject of one series is APESV. Nature of the series: Greenhouse trial, PO application, post-emergence action against weeds (test method 2). As to conditions: g of AS/ha: (A) 120, (B) 1200, (C) 120, mixture 120 + 1200 + 120. Format: in vivo, Apera Spica-venti. As to the method: (§1) In the standard design of the test, seeds of various broad-leaved weed and weed grass biotypes (origins) were sown in a 8-13 cm diameter pot filled with natural soil of a standard field soil (loamy silt; non-sterile) and covered with a covering soil layer of about 1 cm. The pots were then cultivated in a greenhouse (12-16 h of light, temperature day 20-22° C., night 15-18° C.) until the time of application. The pots were treated on a laboratory track sprayer with spray liquors comprising the compositions according to the invention, mixtures of the prior art or components used individually. Application of the active compounds or active compound combinations formulated as WG, WP, EC or otherwise was carried out at the appropriate growth stages of the plants. The application rate for the spray application was 100-600 l of water/ha. After the treatment, the plants were returned to the greenhouses.
(§2) About 3 weeks after the application, the soil action or/and foliar action was assessed visually according to a scale of 0-100% in comparison to an untreated comparative group: 0%=no noticeable effect compared to the untreated comparative group; 100%=full effect compared to the untreated comparative group. […]

In a further series the test system is STEME. Described as above. It counts as in vivo, Stellaria media. Conditions: g of AS/ha: (A) 120, (B) 1200, (C) 120, mixture 120 + 1200 + 120. As to the method: as §1, §2
The test system of series [1] is LOLPE. The description is as above. As to conditions: g of AS/ha: (A) 120, (B) 1200, (C) 120, mixture 120 + 1200 + 120. It counts as in vivo, Lolium perenne. As to the method:
as §1, §2

The subject of series [2] is HORVS. Nature of the series: Greenhouse trial, PO application, selective post-emergence action on crop (test method 4). Format: in vivo, Hordeum vulgare, summer barley. As to conditions: g of AS/ha: (A) 120, (B) 1200, (C) 120, mixture 120 + 1200 + 120. As to the method: as §1, §2
Series [3] has as its system LOLPE. Nature of the series: Greenhouse trial, PE application, pre-emergence action against weeds (test method 1). As to conditions: g of AS/ha: (A) 90, (B) 1200, (C) 90, mixture 90 + 1200. It counts as in vivo, Lolium perenne. As to the method:
as §1, §2

For series [4], the system named is AVEFA. The description is as above. It counts as in vivo, Avena fatua. Conditions: g of AS/ha: (A) 90, (B) 1200, (C) 90, mixture 90 + 1200. As to the method:
as §1, §2

Series [5] concerns HORVS. The series is described as follows: Greenhouse trial, PE application, selective pre-emergence action on crop (test method 3). Format: in vivo, Hordeum vulgare, summer barley. As to conditions: g of AS/ha: (A) 90, (B) 1200, (C) 90, mixture 90 + 1200. As to the method: as §1, §2
Series [6] relates to LOLPE. Nature of the series: Greenhouse trial, pre-sowing application 7 days prior to sowing (test method 5). It counts as in vivo, Lolium perenne. Conditions: g of AS/ha: (A) 90, (B) 1200, (C) 90, mixture 90 + 1200. As to the method:
as §1, §2

Series [7] concerns AVEFA. The series is described as above. It counts as in vivo, Avena fatua. Conditions: g of AS/ha: (A) 90, (B) 1200, (C) 90, mixture 90 + 1200. As to the method: as §1, §2
Series [8] concerns HORVS. The description is as above. It counts as in vivo, Hordeum vulgare, summer barley. As to conditions: g of AS/ha: (A) 90, (B) 1200, (C) 90, mixture 90 + 1200. As to the method:
as §1, §2

Series [9] relates to AVEFA. The series is described as follows: Greenhouse trial, PE application with different irrigation variations (test method 6). Format: in vivo, Avena fatua. As to conditions: g of AS/ha: (A) 120, (B) 1200, (C) 90, mixture 120 + 1200 + 90. As to the method:
as §1, §2

A further series relates to MATCH. The series is described as above. It counts as in vivo, Matricaria chamomilla. As to conditions: g of AS/ha: (A) 120, (B) 1200, (C) 90, mixture 120 + 1200 + 90. As to the method: as §1
(§3) About 3 weeks after the application, the soil action or/and foliar action was assessed visually according to a scale of 0-100% in comparison to an untreated comparative group: 0%=no noticeable effect compared to the untreated comparative group; 100%=full effect compared to the untreated comparative group.
(notes: the term “seeds” also includes vegetative propagation forms such as, for example, rhizome pieces; abbreviations used: h light=hours of illumination, g of AS/ha=gram of active substance per hectare, l/ha=liter per hectare, S=sensitive, R=resistant) • 1. Pre-emergence action against weeds: seeds of various broad-leaved weed and weed grass biotypes (origins) were sown in a 8-13 cm diameter pot filled with natural soil of a standard field soil (loamy silt; non-sterile) and covered with a covering soil layer of about 1 cm. The pots were then cultivated in a greenhouse (12-16 h of light, temperature day 20-22° C., night 15-18° C.) until the time of application. […]

A further series relates to TRZAS. The series is described as above. Format: in vivo, Triticum aestivum, summer wheat. Conditions: g of AS/ha: (A) 120, (B) 1200, (C) 90, mixture 120 + 1200 + 90. As to the method:
as §1, §3
(notes: the term “seeds” also includes vegetative propagation forms such as, for example, rhizome pieces; abbreviations used: h light=hours of illumination, g of AS/ha=gram of active substance per hectare, l/ha=liter per hectare, S=sensitive, R=resistant) • 1. Pre-emergence action against weeds: seeds of various broad-leaved weed and weed grass biotypes (origins) were sown in a 8-13 cm diameter pot filled with natural soil of a standard field soil (loamy silt; non-sterile) and covered with a covering soil layer of about 1 cm. The pots were then cultivated in a greenhouse (12-16 h of light, temperature day 20-22° C., night 15-18° C.) until the time of application. The pots were treated at the BBCH stage 00-10 of the seeds/plants on a laboratory track sprayer with spray liquors comprising the compositions according to the invention, mixtures or components used individually, as WG, WP, EC or other formulations. The application rate for the spray application was 100-600 l of water/ha. After the treatment, the plants were returned to the greenhouses and, when required, treated with fertilizer and watered. • 2. Post-emergence action against weeds: seeds of various broad-leaved weed and weed grass biotypes (origins) were sown in a 8-13 cm diameter pot filled with natural soil of a standard field soil (loamy silt; non-sterile) and covered with a covering soil layer of about 1 cm. The pots were then cultivated in a greenhouse (12-16 h of light, temperature day 20-22° C., night 15-18° C.) until the time of application. […]

In the case of `CCC(CC)Nc1c([N+](=O)[O-])cc(C)c(C)c1[N+](=O)[O-]` [(B) pendimethalin, N-(1-ethylpropyl)-3,4-dimethyl-2,6-dinitrobenzenamine], the “activity APESV (visual, scale 0-100%)” value with APESV was determined as 0%. In addition, in the series with STEME, the “activity STEME (visual, scale 0-100%)” value is 30%. For the same molecule, the “activity LOLPE (visual, scale 0-100%)” value in the series with LOLPE [1] is 0%; in the series with LOLPE [3], 10%; with LOLPE [6], 80%. In addition, the “activity on crop plant HORVS (visual, scale 0-100%)” value came out at 10% in the series with HORVS [2], 50% in the series with HORVS [5] and 30% in the series with HORVS [8]. The “activity AVEFA (visual, scale 0-100%)” value amounted to 40% in the series on AVEFA [4], 70% in the series with AVEFA [7], 80% in the series with AVEFA [9] (irrigation from above) and 40% in the series on AVEFA [9] (irrigation from below). Further, the “activity MATCH (visual, scale 0-100%)” value with MATCH (irrigation from above) came to 30%; with MATCH (irrigation from below), 18%. The figures for the “activity on crop plant TRZAS (visual, scale 0-100%)” value in the series on TRZAS (irrigation from above) and in the series on TRZAS (irrigation from below) were 50% and 0%, respectively.

(Values after US20110152092A1, “Herbicidal compositions comprising flufenacet” (Bayer CropScience AG, priority 2009, published 2011).)
